# Results as given in patent US20210332139A1, “MODULATION OF LEUKOCYTE ACTIVITY IN TREATMENT OF NEUROINFLAMMATORY DEGENERATIVE DISEASE” (Leuvas Therapeutics, priority 2013, published 2021).
# “And” between values parts separate entries of the source, which are not always exact repeats. Equal entries are not always repeated.
# Legend:
# [1] = test system: Bend.3 endothelial cell line; test: Adhesion molecule expression on Bend.3 endothelial cells (immunofluorescence); assay type: cell-based, mouse; parameters: key: −: VCAM-1 and selectins were not expressed (indicated by -, Table 2); constitutively expressed at low levels on endothelial cells (indicated by +/−, some vessels were positive for ICAM-1, Table 2); an increase of ICAM-1 expression (indicated by +, Table 2); conditions: Bend.3 cells, 10 μM Aβ1-42 oligomers, 18 h
# Method: We performed in vitro experiments to study the effect of soluble Aβ1-42 oligomers on the endothelial cell line Bend.3, derived from mouse cerebral cortex purchased by ATCC& Cell Biology Collection (CRL-2299TM).
# Briefly, Bend.3 were cultured at a concentration of 20×10^3/ml on a glass coverslip in 24-well plates containing DMEM supplemented with 10% Fetal Calf Serum (FCS). Cells were stimulated with 10 μM Aβ 1-42, for 18 h in DMEM with 1% FCS. […] positive control, cells were treated with 25 U/ml of TNFα for 18 h in DMEM with 1% FCS. Bend.3 were rinsed with PBS and fixed with 4% PFA for 10 minutes. Cells were washed with PBS incubated with blocking buffer for 1 h at RT° C. Primary antibodies were diluted in 1% Bovine Serum Albumin (BSA) PBS. Cells were incubated overnight at 4° C. with 50 μg/ml anti-VCAM (hybridoma MK2.7), 10 μg/ml anti-ICAM (hybridoma YN1.7), 0.5 μg/ml anti-CD31 (370700, Invitrogen), 5 μg/ml anti-E-selectin (hybridoma RME-1) and 1.5 μg/ml anti-P-selectin (CD62P, BD Pharmigen). The day after, cells were rinsed 2 times with PBS and then incubated with 7.5 μg/ml biotinylated secondary antibody (rabbit anti-rat, T0226, VectorLab) for 1 h at RT° C. Cells were rinsed 2 times with PBS and incubated with 25 μg/ml Avidin-TexasRed (A2006, Vector Lab) for 1 h at RT° C. in the dark. After rinsing in PBS, cells were incubated with 1 μg/ml Dapi (D9542, Sigma-Aldrich, St. Louis, Mo.), for 5 minutes in the dark. Finally, glass coverslip was transferred on glass slides and mounted with Dako medium (S3023, DAKO NORTH AMERICA, Carpinteria, Calif.). Glass slides were kept at 4° C. in the dark and acquired by LEICA fluorescence microscopy (DM6000B, LEICA, Germany).
# We analyzed the expression of VCAM-1, ICAM-1, E- and P-selectin on Bend.3 after Aβ1-42 oligomers stimulation. TNF-α stimulation, which is well known to up-regulate the adhesion molecules expression, was used as positive control. We evaluated a dose-response effect of Aβ1-42 soluble oligomers on Bend.3 cells, ranging from 1 to 10 μM after 6 or 18 hours of treatment. After 18 h of treatment with 10 μM Aβ we observed a significant up-regulation of […] compared to non-stimulated control cells (CTRL) (Table 2). […] ICAM-1 was constitutively expressed at low levels on endothelial cells (indicated by +/−, some vessels were positive for ICAM-1, Table 2), but 18 h treatment with Aβ1-42 led to an increase of ICAM-1 expression (indicated by +, Table 2).
# human neutrophils [2] = test: Rapid adhesion of human neutrophils to fibrinogen and ICAM-1; assay type: cell-based; conditions: mean+/−SD
# Excerpt: All data are expressed as the mean+/−SD of bound cells in 0.2 mm^2 from three independent experiments made in duplicate.
# neutrophils = test: Rapid adhesion of neutrophils, soluble versus fibrillary Aβ1-42; assay type: cell-based; conditions: mean+/−SD
# Excerpt: Although two-times less efficient than the soluble form, fibrillary Aβ triggered a significant increase of rapid neutrophil adhesion on both ICAM-1 and fibrinogen (Table 8; data are expressed as the mean+/−SD of bound cells in 0.2 mm^2 from three independent experiments made in duplicate).
# human neutrophils [3] = test: Rapid human neutrophil adhesion to ICAM-1, inhibition by bocMLF and PTx; assay type: cell-based; conditions: oligomeric Aβ, 2 minutes
# Method: It is known that one of the receptors for Aβ is the receptor for fMLP, formylpeptide chemotactic receptor (FPR). To evaluate the contribution of this GPCR receptor on Aβ-dependent neutrophil adhesion, we inhibited its function using boc-MLF, a formyl-peptide chemotactic receptor antagonist. Human neutrophils were incubated for 2 minutes with buffer (control) or with oligomeric Aβ. 0.1 μM fMLP was used as a positive control. Values are expressed as the mean counts of bound cells in 0.2 mm^2 from three independent experiments in duplicate. Error bars represent SD. […] To exclude the possibility that rapid adhesion triggering was a consequence of a generic plasma membrane alteration due to the lipophilic nature of Aβ, we evaluated rapid adhesion in lymphocytes, which are known to lack fMLP receptors.
# human neutrophils [4] = test: Isoluminol chemiluminescence ROS assay, human neutrophils; assay type: cell-based; conditions: human neutrophils on fibrinogen, mean+/−SD
# Method: One of the mechanisms of neuronal damage by beta-amyloid in Alzheimer's disease is the generation of reactive oxygen species (ROS). We determined whether Aβ1-42 oligomers induce ROS production in neutrophils by using a chemiluminescence assay.
# (§1) Isoluminol-based chemiluminescence assays were performed in HGCa in the presence of horseradish peroxidase (HRP) and isoluminol (both from Sigma-Aldrich) in a temperature-controlled Multilabel Count Victor X5 (Perkin Elmer). Assays were run in dark 96 well plates precoated with 250 μg/ml human fibrinogen in HGCa containing (final concentration): 100 μM isoluminol and 8 U/ml HRP. After addition of 1×10^5 human neutrophils or 7.5×10^5 mouse neutrophils, plates were left at 37° C. for 5-10 min and the reaction started by addition of the stimulus. Light emission was recorded every minute.
# (§2) We used the chemotactic peptide fMLP as positive control. […] Data are mean+/−SD for three independent experiments.
# mouse neutrophils = test: Isoluminol chemiluminescence ROS assay, mouse neutrophils; assay type: cell-based; conditions: mean+/−SD
# Method: as §1, §2
# Data are mean+/−SD counts per second.
# human primary PMNs = test: Static adhesion of human primary PMNs to ICAM-1 with signaling inhibitors; assay type: cell-based; conditions: 10 μM Aβ, 1 min; listed as Aβ oligo
# Method: As a model system, human primary PMNs were isolated form healthy donors stimulated to very rapid adhesion to purified human ICAM-1, ligand for the β2 integrins LFA-1 and Maci. fMLP (the classical chemoattractant) was the positive control. […] PMNs were treated for 30 min. with different concentrations of inhibitors followed by stimulation for 1 min with 50 nM fMLP or with 10 μM Aβ. The number of adherent cells was quantified by computer-assisted evaluation. Statistical analysis was SD.
substance,measurement,setting,value
Abeta 1-42: soluble oligomeric amyloid-beta 1-42 peptide used as stimulus,CD31 expression (endothelial cell marker),[1],+
same,E-sel expression,[1],+
same,ICAM-1 expression,[1],+
same,P-sel expression,[1],+
same,VCAM-1 expression,[1],+
same,Rapid adhesion to Fibrinogen,human neutrophils [2]; 1 μM,108.0 ± 26.1 bound cells in 0.2 mm^2
same,Rapid adhesion to ICAM-1,human neutrophils [2]; 1 μM,156.5 ± 40.9 bound cells in 0.2 mm^2
same,Rapid adhesion to Fibrinogen,human neutrophils [2]; 5 μM,200.9 ± 48.7 bound cells in 0.2 mm^2
same,Rapid adhesion to ICAM-1,human neutrophils [2]; 5 μM,184.0 ± 55.4 bound cells in 0.2 mm^2
same,Rapid adhesion to Fibrinogen,human neutrophils [2]; 10 μM,285.2 ± 38.9 bound cells in 0.2 mm^2
same,Rapid adhesion to ICAM-1,human neutrophils [2]; 10 μM,229.2 ± 43.4 bound cells in 0.2 mm^2
same,Rapid adhesion to Fibrinogen,human neutrophils [2]; 20 μM,449.1 ± 34.0 bound cells in 0.2 mm^2
same,Rapid adhesion to ICAM-1,human neutrophils [2]; 20 μM,281.0 ± 30.7 bound cells in 0.2 mm^2
same,Rapid adhesion to Fibrinogen,neutrophils; 15 μM,180.7 ± 30.7 bound cells in 0.2 mm^2
same,Rapid adhesion to ICAM-1,neutrophils; 15 μM,480.7 ± 61.7 bound cells in 0.2 mm^2
same,Rapid adhesion to Fibrinogen,neutrophils; 30 μM,419.2 ± 30.7 bound cells in 0.2 mm^2
same,Rapid adhesion to ICAM-1,neutrophils; 30 μM,738.5 ± 29.3 bound cells in 0.2 mm^2
same,"Neutrophil adhesion to ICAM-1, stimulus alone (Ctrl, no inhibitor)",human neutrophils [3],490.4 ± 38.9 bound cells in 0.2 mm^2 and 475.5 ± 40.0 bound cells in 0.2 mm^2
same,ROS generation (chemiluminescence),human neutrophils [4]; 1 min,558 ± 112
same,ROS generation (chemiluminescence),human neutrophils [4]; 2 min,540 ± 106
same,ROS generation (chemiluminescence),human neutrophils [4]; 3 min,358 ± 132
same,ROS generation (chemiluminescence),human neutrophils [4]; 4 min,235 ± 61
same,ROS generation (chemiluminescence),human neutrophils [4]; 5 min,199 ± 76
same,ROS generation (chemiluminescence),mouse neutrophils; 1 min,226 ± 34 counts per second
same,ROS generation (chemiluminescence),mouse neutrophils; 2 min,103 ± 17 counts per second
same,"Adherent hPMNs to ICAM-1, Aβ oligo, Mean, Control (no inhibitor)",human primary PMNs,464.0 and 500.8 and 464.5 and 455.0 and 475.5 and 470.7
